Columns and labels:
[1] = test system: Phaeosphaeria nodorum (Septoria nodorum); test: Phaeosphaeria nodorum (Septoria nodorum) / wheat / leaf disc preventative (glume blotch); format: in vivo; details: Parastagonospora nodorum, foliar, wheat cv Kanzler leaf segments, inoculated 2 days after application, assessed 5-7 days after application, read-out: control of Phaeosphaeria nodorum (percent disease control compared to untreated)
[2] = test system: Pyrenophora teres; test: Pyrenophora teres / barley / leaf disc preventative (net blotch); format: in vivo; details: foliar, barley cv Hasso leaf segments, inoculated two days after application, assessed 5-7 days after application, read-out: control of Pyrenophora teres (disease control compared to untreated)
[3] = test system: Botryotinia fuckeliana (Botrytis cinerea); test: Botryotinia fuckeliana (Botrytis cinerea) / liquid culture (gray mould); format: cell-based; details: Vogels broth, 96-well plate, 24° C., 3-4 days after application, read-out: control of Botryotinia fuckeliana (inhibition of growth, photometric)
[4] = test system: Mycosphaerella arachidis (Cercospora arachidicola); test: Mycosphaerella arachidis (Cercospora arachidicola) / liquid culture (early leaf spot); format: cell-based; details: PDB potato dextrose broth, 96-well plate, 24° C., 4-5 days after application, read-out: control of Mycosphaerella arachidis (inhibition of growth, photometric)
[5] = test system: Mycosphaerella graminicola (Septoria tritici); test: Mycosphaerella graminicola (Septoria tritici) / liquid culture (Septoria blotch); format: cell-based; details: Zymoseptoria tritici, PDB potato dextrose broth, 96-well plate, 24° C., 4-5 days after application, read-out: control of Mycosphaerella graminicola (inhibition of growth, photometric)
[6] = test system: Gaeumannomyces graminis; test: Gaeumannomyces graminis / liquid culture (take-all of cereals); format: cell-based; details: liquid culture of mycelial fragments, PDB potato dextrose broth, 96-well plate, 24° C., 4-5 days after application, read-out: control of Gaeumannomyces graminis (inhibition of growth, photometric)
[7] = test system: Glomerella lagenarium (Colletotrichum lagenarium); test: Glomerella lagenarium (Colletotrichum lagenarium) / liquid culture (anthracnose); format: cell-based; details: Colletotrichum orbiculare, PDB potato dextrose broth, 96-well plate, 24° C., 3-4 days after application, read-out: control of Glomerella lagenarium (inhibition of growth, photometric)
[8] = test system: Monographella nivalis (Microdochium nivale); test: Monographella nivalis (Microdochium nivale) / liquid culture (foot rot cereals); format: cell-based; details: PDB potato dextrose broth, 96-well plate, 24° C., 4-5 days after application, read-out: control of Monographella nivalis (inhibition of growth, photometric)
Protocol: Monographella nivalis (Microdochium nivale)/Liquid Culture (Foot Rot Cereals): Conidia of the fungus from cryogenic storage were directly mixed into nutrient broth (PDB potato dextrose broth). After placing a DMSO solution of test compound into a 96-well microtiter plate at an application rate of 200 ppm, the nutrient broth containing the fungal spores was added. The test plates were incubated at 24° C. and the inhibition of growth was determined photometrically 4-5 days after application. […].103

Row | Compound | inhibition at 200 ppm [3] [%] | inhibition at 200 ppm [4] [%] | inhibition at 200 ppm [5] [%] | further results
1 | CO/N=C(\C)c1cccc(CCCO/N=C(\C)c2cccc(C3CC3)n2)n1 [P.20] | ≥ 80 | ≥ 80 | ≥ 80 | pest or weed control at 200 ppm [1]: ≥ 80%; pest or weed control at 200 ppm [2]: ≥ 80%
2 | CO/N=C(\C)c1cccc(CCCO/N=C(\C)c2cccc(-c3ccccc3)n2)n1 [P.33] | ≥ 80 | ≥ 80 | ≥ 80 | 
3 | CO/N=C(\C)c1cccc(CCCO/N=C(\C)c2nc(C(F)(F)F)ccc2C(=O)OC)n1 [P.46] | ≥ 80 | ≥ 80 | ≥ 80 | pest or weed control at 200 ppm [1]: ≥ 80%; inhibition at 200 ppm [6]: ≥ 80%
4 | CO/N=C(\C)c1cccc(CCCO/N=C2\CCCc3cncnc32)n1 [P.65] | ≥ 80 |  |  | 
5 | CO/N=C(\C)c1cccc(CCCON=C(CCN(C)C)c2cccc(Br)n2)n1 [P.108] |  | ≥ 80 |  | 
6 | CO/N=C(\C)c1cccc(CCCO/N=C(\C)c2cc(C#N)ccn2)n1 [P.37] |  |  |  | inhibition at 200 ppm [6]: ≥ 80%
7 | CO/N=C(\C)c1cccc(CCCO/N=C2\CCCc3c2nc2ccccc2c3-c2ccccc2)n1 [P.99] | ≥ 80 | ≥ 80 | ≥ 80 | inhibition at 200 ppm [7]: ≥ 80%; inhibition at 200 ppm [8]: ≥ 80%
8 | CC/C(=N\OCCCc1cccc(/C(C)=N/OC)n1)c1ccccn1 [P.54] |  |  |  | inhibition at 200 ppm [6]: ≥ 80%
9 | CO/N=C(\C)c1cccc(CCCO/N=C(\c2ccccc2)c2nc(OC)cc(OC)n2)n1 [P.68] |  | ≥ 80 | ≥ 80 | 
10 | CO/N=C(\C)c1cccc(CCCON=C(CC#N)c2ccccn2)n1 [P.105] |  |  |  | inhibition at 200 ppm [6]: ≥ 80%
11 | CO/N=C(\C)c1cccc(CCCO/N=C2\CCCc3cnc(C)nc32)n1 [P.60, 2-Methyl-6,7-dihydro-5H-quinazolin-8-one O-[3-(6-(1-((E)-methoxyimino)-ethyl)-pyridin-2-yl)-propyl]-oxime] |  | ≥ 80 |  | 
12 | CO/N=C(\C)c1cccc(CCCON=C(C)c2ccnc(-c3cccc(C)n3)n2)n1 (single isomer, unassigned) [P.63A] |  |  | ≥ 80 | pest or weed control at 200 ppm [1]: ≥ 80%; inhibition at 200 ppm [7]: ≥ 80%
13 | CO/N=C(\C)c1cccc(CCCON=C(c2ccc(-n3cccc3)c(C)c2)c2ccccn2)n1 [P.107] |  | ≥ 80 |  | 
14 | C#Cc1cccc(/C(C)=N/OCCCc2cccc(/C(C)=N/OC)n2)n1 [P.18] | ≥ 80 | ≥ 80 |  | 
15 | CO/N=C/c1cccc(CCCO/N=C(\C)c2cccc(C)n2)n1 [P.21] | ≥ 80 |  |  | 
16 | CO/N=C(\C)c1cccc(CCCO/N=C(\C)c2cccc(C#CCO)n2)n1 [P.78] |  | ≥ 80 | ≥ 80 | inhibition at 200 ppm [8]: ≥ 80%
17 | CO/N=C(\C)c1cccc(CCCO/N=C(\C)c2cccc(C(OC)OC)n2)n1 [P.29] | ≥ 80 | ≥ 80 | ≥ 80 | 
18 | CO/N=C(\C)c1cccc(CCCO/N=C2\COCc3c2nc2ccccc2c3C)n1 [P.89] | ≥ 80 | ≥ 80 | ≥ 80 | 
19 | CO/N=C(\C)c1cccc(CCCO/N=C(\C)c2ccccn2)n1 [P.17] | ≥ 80 |  |  | 
20 | CO/N=C(\C)c1cccc(CCCO/N=C2\CCCc3c2nc2c(C)cccc2c3C)n1 [P.90] | ≥ 80 | ≥ 80 | ≥ 80 | inhibition at 200 ppm [7]: ≥ 80%
21 | C=C(CCO/N=C(\C)c1cccc(C)n1)c1cccc(/C(C)=N/OC)n1 [P.05, (E)-1-(6-{1-methylene-3-[1-(6-methyl-pyridin-2-yl)-eth-(E)-ylideneaminooxy]-propyl}-pyridin-2-yl)-ethanone O-methyl-oxime] |  |  | ≥ 80 | inhibition at 200 ppm [8]: ≥ 80%
22 | CO/N=C(\C)c1cccc(CCCON=C(C)c2ccnc(-c3cccc(C)n3)n2)n1 (single isomer, unassigned) [P.63B] | ≥ 80 |  |  | 
23 | CO/N=C(\C)c1cccc(CCCO/N=C(\C)c2cc(C)c3ccccc3n2)n1 [P.71] | ≥ 80 |  |  | 

Row | Compound | inhibition at 200 ppm [3] [%] | inhibition at 200 ppm [4] [%] | inhibition at 200 ppm [5] [%] | further results
24 | CCCCc1c2c(nc3ccc(Cl)cc13)/C(=N/OCCCc1cccc(/C(C)=N/OC)n1)CCC2 [P.85] | ≥ 80 |  | ≥ 80 | 
25 | C=CCOc1ccc(C)nc1/C=N/OCCCc1cccc(/C(C)=N/OC)n1 [P.49] |  | ≥ 80 |  | 
26 | CO/N=C(\C)c1cccc(CCCO/N=C(\C)c2cc(C(C)(C)C)ccn2)n1 [P.45] | ≥ 80 | ≥ 80 | ≥ 80 | 
27 | CO/N=C(\C)c1cccc(CCCO/N=C2\CCCc3cnc(-c4ccccc4)nc32)n1 [P.61, 2-Phenyl-6,7-dihydro-5H-quinazolin-8-one O-[3-(6-(1-((E)-methoxyimino)-ethyl)-pyridin-2-yl)-propyl]-oxime] | ≥ 80 | ≥ 80 | ≥ 80 | pest or weed control at 200 ppm [1]: ≥ 80%; inhibition at 200 ppm [6]: ≥ 80%
28 | CO/N=C(\C)c1cccc(CCCO/N=C(\C)c2cccc(-c3cc(C)ccc3C)n2)n1 [P.15] | ≥ 80 | ≥ 80 | ≥ 80 | pest or weed control at 200 ppm [2]: ≥ 80%
29 | CO/N=C(\C)c1cccc(CCCO/N=C(\C)c2cccc(CCCO)n2)n1 [P.77] | ≥ 80 | ≥ 80 | ≥ 80 | 
30 | CO/N=C(\C)c1cccc(CCCO/N=C(\C)c2cccc(CCCOCc3ccccc3)n2)n1 [P.75] | ≥ 80 | ≥ 80 | ≥ 80 | 
31 | CCOC(=O)c1cc(C)cc(/C(C)=N/OCCCc2cccc(/C(C)=N/OC)n2)n1 [P.47] | ≥ 80 | ≥ 80 | ≥ 80 | 
32 | CO/N=C(\C)c1cccc(CCCO/N=C2\CCCc3cnc(-c4cccc(C)n4)nc32)n1 [P.64] | ≥ 80 |  |  | 
33 | CO/N=C(\C)c1cccc(CCCO/N=C(\C)c2cccc(-c3ccccc3O)n2)n1 [P.16] |  |  | ≥ 80 | 
34 | CO/N=C(\C)c1cccc(CCCO/N=C(\C)c2cccc(C#CC(C)(C)C)n2)n1 [P.79] | ≥ 80 | ≥ 80 |  | 
35 | CO/N=C(\C)c1cccc(CCCO/N=C(\C)c2cccc(C#N)n2)n1 [P.50] | ≥ 80 | ≥ 80 | ≥ 80 | 
36 | CO/N=C(\C)c1cccc(CCCO/N=C(\c2ccccc2)c2ccccn2)n1 [P.53] |  |  |  | inhibition at 200 ppm [6]: ≥ 80%
37 | CO/N=C(\C)c1cccc(CCCO/N=C(\C)c2nc(OC)cc(OC)n2)n1 [P.66] | ≥ 80 | ≥ 80 |  | 
38 | CO/N=C(\C)c1cccc(CCCO/N=C2\CCCc3c2nc2cnccc2c3C)n1 [P.80] | ≥ 80 | ≥ 80 | ≥ 80 | inhibition at 200 ppm [8]: ≥ 80%
39 | C/C(=N\OCCCc1cccc(/C(C)=N/O)n1)c1cccc(C)n1 [P.11] | ≥ 80 |  | ≥ 80 | 
40 | CCOc1cc(OCC)nc(/C(C)=N/OCCCc2cccc(/C(C)=N/OC)n2)n1 [P.67] | ≥ 80 | ≥ 80 | ≥ 80 | 
41 | CO/N=C(\C)c1cccc(C(CCO/N=C(\C)c2cccc(C)n2)=C(Cl)Cl)n1 [P.13] |  | ≥ 80 | ≥ 80 | pest or weed control at 200 ppm [1]: ≥ 80%; pest or weed control at 200 ppm [2]: ≥ 80%; inhibition at 200 ppm [6]: ≥ 80%
42 | CO/N=C(\C)c1cccc(CCCO/N=C/c2nc(C)ccc2O)n1 [P.35] | ≥ 80 | ≥ 80 | ≥ 80 | inhibition at 200 ppm [6]: ≥ 80%; inhibition at 200 ppm [8]: ≥ 80%
43 | CO/N=C(\C)c1cccc(CCCO/N=C(\C)c2ccc3ccccc3n2)n1 [P.34] | ≥ 80 |  | ≥ 80 | 
44 | CO/N=C(\C)c1cccc(CCCO/N=C/c2cccc(C)n2)n1 [P.38] | ≥ 80 | ≥ 80 | ≥ 80 | inhibition at 200 ppm [8]: ≥ 80%
45 | CO/N=C(\C)c1cccc(CCCO/N=C/c2cccc(Oc3ccccc3)n2)n1 [P.39] | ≥ 80 | ≥ 80 | ≥ 80 | 
46 | CO/N=C(\C)c1cccc(CCCO/N=C2\CCCc3ccc(C)nc32)n1 [P.57] | ≥ 80 | ≥ 80 | ≥ 80 | pest or weed control at 200 ppm [1]: ≥ 80%; inhibition at 200 ppm [7]: ≥ 80%; inhibition at 200 ppm [6]: ≥ 80%; inhibition at 200 ppm [8]: ≥ 80%
